# Reference: BindingDB's records for patent US10428066 (PROXIMAGEN, LLC, 2019)
# Target: T1, Membrane primary amine oxidase (Homo sapiens, UniProt Q16853)
# T1 sequence (Q16853 whole entry): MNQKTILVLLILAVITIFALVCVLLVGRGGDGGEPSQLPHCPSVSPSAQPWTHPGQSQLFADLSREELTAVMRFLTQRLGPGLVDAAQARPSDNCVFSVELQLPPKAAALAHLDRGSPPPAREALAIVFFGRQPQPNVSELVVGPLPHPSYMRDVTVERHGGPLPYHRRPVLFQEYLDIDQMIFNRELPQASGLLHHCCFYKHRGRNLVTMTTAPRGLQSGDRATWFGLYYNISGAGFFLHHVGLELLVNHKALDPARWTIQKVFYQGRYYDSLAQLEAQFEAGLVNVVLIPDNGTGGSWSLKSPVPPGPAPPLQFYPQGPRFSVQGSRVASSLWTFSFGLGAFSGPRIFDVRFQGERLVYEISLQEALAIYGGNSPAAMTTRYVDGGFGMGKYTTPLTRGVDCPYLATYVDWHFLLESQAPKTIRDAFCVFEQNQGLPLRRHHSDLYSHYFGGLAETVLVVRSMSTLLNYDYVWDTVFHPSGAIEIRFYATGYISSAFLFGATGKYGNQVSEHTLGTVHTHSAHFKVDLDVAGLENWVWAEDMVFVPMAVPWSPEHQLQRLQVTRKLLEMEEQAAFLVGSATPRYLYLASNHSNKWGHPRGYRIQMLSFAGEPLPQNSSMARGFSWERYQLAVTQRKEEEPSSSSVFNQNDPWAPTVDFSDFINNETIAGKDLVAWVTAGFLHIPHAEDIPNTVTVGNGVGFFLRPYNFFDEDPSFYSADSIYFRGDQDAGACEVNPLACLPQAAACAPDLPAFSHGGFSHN
# Experiment: Biological Assay
# Experimental: All primary assays were performed at RT. with purified recombinantly expressed human SSAO. […] In addition, secondary- and selectivity assays were performed using SSAO prepared from various tissues or purified rat recombinant SSAO. The enzyme activity was assayed with benzylamine as substrate by measuring either benzaldehyde production, using 14C-labeled substrate, or by utilizing the production of hydrogen peroxide in a horseradish peroxidase (HRP) coupled reaction. Briefly, test compounds were dissolved in dimethyl sulfoxide (DMSO) to a concentration of 10 mM. Dose-response measurements were assayed by either creating 1:10 serial dilutions in DMSO to produce a 7 point curve or by making 1:3 serial dilutions in DMSO to produce 11 point curves.
compound,measurement,value
"Cc1cc(N)ncc1-c1cc2ccncc2n1-c1ccc(Cl)cc1 [5-[1-(4-Chlorophenyl)-1H-pyrrolo[2,3-c]pyridin-2-yl]-4-methylpyridin-2-amine; bis(trifluoroacetic acid)]",IC50,in the range around 125 nM
